Results on 2 substances are retold here after article PMC5136666, “Epobis is a Nonerythropoietic and Neuroprotective Agonist of the Erythropoietin Receptor with Anti-Inflammatory and Memory Enhancing Effects” (Mediators of Inflammation, 2016).

Positions of bridges follow the written chain, without caps; N, C: chain ends. Chains are numbered I, II in the order given. No end group written: not given here.

For one data set, the system named is primary rat motoneurons. As to the kind of experiment: Neurite outgrowth from primary motoneurons. Format: cell-based. As to conditions: 24 h, bell-shaped concentration dependence, p < 0.0001, 3 independent experiments. Here is the method: Primary rat motoneurons were isolated as described previously. Briefly, the ventral horns of the lumbar spinal cord were dissected from Wistar rat embryos (E15). The dissociated motoneurons were plated at a density of 7,000 cells per well on laminin-coated (5 μg/mL; Sigma-Aldrich) 8-well LabTek Permanox slides (NUNC, Denmark). Neurons were stimulated with serially diluted Epobis peptide for 24 h, fixed with 4% formalin, stained with polyclonal rabbit anti-rat growth-associated protein-43 antibodies (1 : 1000; Millipore), and analyzed by computer-assisted fluorescence microscopy as described.

Data set [1] relates to TNF secretion from AMJ2-C8 macrophages. As to the kind of experiment: Macrophage activation assay (TNF secretion estimated from L-cell viability). Type of data set: cell-based, mouse. The conditions noted are these: untreated ~48%, MTS, 4 experiments. Here is the method:
The macrophage activation assay is used to estimate tumor necrosis factor (TNF) secretion from the macrophage cell line AMJ2-C8 (ATCC; Boras, Sweden). Fibroblastoid mouse L929 cells (L-cells; ECCC, Salisbury, UK) are sensitive to TNF upon exposure to actinomycin D, and L-cell survival can therefore be utilized as an indirect estimate of TNF concentrations. The assay was performed essentially as described previously. Briefly, AMJ2-C8 cells were plated in 6-well MultiDish plates (Nunc, Denmark) and treated with 100 μM hydrocortisone (Sigma-Aldrich, Brøndby, Denmark), […] (8.4 nM) rhEPO (Calbiochem, Merck Millipore, Denmark), or Epobis (0.9–8.1 μM) for 24 h. They were then exposed to 10 ng/mL interferon-γ (IFN-γ) (R&D Systems, UK) for 24 h to induce the production of TNF [34].
L-cells were seeded in 96-well Multiwell plates (2 × 10^5 cells/mL, 100 μL/well; Nunc) and grown for 24 h. Then conditioned medium from stimulated macrophages was collected and added to the L-cells together with actinomycin D (Sigma, Sigma-Aldrich). L-cell viability was assayed 24 h later by the MTS assay (Promega, Madison, WI, USA) according to the manufacture's protocol. Cell viability was calculated as follows: (1) cell viability %=ODexperiment/ODcontrol×100. […]

The subject of data set [2] is TNF secretion from rat primary microglia. Description: LPS-induced TNF release from rat primary microglia (ELISA). Type of data set: cell-based. As to conditions: 0.9 μM, 1 h pretreatment, LPS 100 ng/mL 24 h, p < 0.05, 3 experiments. As for the experimental part:
Mixed glial cultures were prepared from 1-day-old to 2-day-old Wistar rat pups as described previously. Briefly, cortices were dissected, roughly chopped, and incubated in prewarmed 0.5% trypsin for 10 min. Then Dulbecco's modified Eagle's medium (DMEM) plus GlutaMAX (culture media; Gibco) containing 10% fetal calf serum, penicillin (100 U/mL), and streptomycin (100 U/mL) was added and tissue was triturated. The suspension was centrifuged at 500 ×g for 10 min, and the resulting pellet was resuspended in culture media and plated in a poly-L-lysine-coated T180 flask. The mixed glial culture was grown for 2-3 weeks at 37°C in a humidified 5% CO2 : 95% air environment. The medium was changed first at day 2 after culture preparation and then every 5-6 days. […] Images were recorded using a Zeiss Axiovert 100 microscope mounted with an AxioCam MRm camera using the accompanying ZEN 2012 software.
To induce TNF secretion, microglia cells were treated with lipopolysaccharide (LPS; 100 ng/mL; Sigma) following 1 h pretreatment in the absence or presence of Epobis. Conditioned media were collected 24 h later and released TNF was determined using a rat TNF Ready-SET-Go!® ELISA kit according to the manufacturer's instructions (eBioscience, San Diego, USA).
In general terms: In an ELISA, binding on a coated surface is turned into a signal by an enzyme label.

Data set [3] in a line: Detection of Epobis in plasma and cerebrospinal fluid. The conditions noted are these: rat. Format: in vivo, Wistar rats. As for the experimental part: Detection of biotinylated Epobis in plasma was performed essentially as described previously. Briefly, 10 mg/kg Epobis was injected subcutaneously (s.c.) in anaesthetized 200 g Wistar rats, and blood samples were collected from the orbital plexus at selected time points. Cerebrospinal fluid (CSF) was sampled from the cisterna magna as described previously.
Subsequently the concentrations of peptide in serum plasma and CSF were estimated using a competitive enzyme-linked immunosorbent assay, where all samples were run in duplicate.

Data set [4] deals with hematocrit and hemoglobin levels in mice. Description: Hematopoiesis assay. Type of data set: in vivo. The conditions noted are these: 10 mg/kg s.c. twice per week for 5 weeks, female C57BL/6J mice. As for the experimental part:
Estimates of hematopoietic activity of Epobis in female C57BL/6J mice were performed essentially as described previously. Briefly, Epobis (10 mg/kg), EPO (10 mg/kg; Calbiochem), or vehicle (PBS) was injected subcutaneously twice per week for 5 weeks. Blood samples were collected from the orbital plexus once per week, and hemoglobin levels and hematocrit values were determined as described.

The subject of the next data set is EAE in Lewis rats. As to the kind of experiment: Experimental autoimmune encephalomyelitis (EAE). Format: in vivo. Here is the method: Experimental autoimmune encephalomyelitis (EAE) was induced as described previously. Briefly, female Lewis rats (200 g) received subcutaneous injections at both sides of the base of the tail with 0.2 mL of an emulsion containing 1 g/L Guinea pig myelin basic protein and 1 g/L M. tuberculosis in Freund's complete adjuvant (all from Sigma-Aldrich). The injections were performed under full inhalation anesthesia. EAE was induced in 30 animals; 6 healthy, age-matched, unimmunized rats were used as controls. Between day 0 and day 21, the weight and clinical signs of EAE were recorded daily for all animals. Clinical signs were scored as follows: 0, no abnormality; 0.5, weak tail; 1, limp tail; 2, mild palsy of one or both hind legs; 3, severe palsy of one or both hind legs; 4, complete paralysis of one or both hind legs; 5, paralysis of one or both hind legs and beginning paralysis of front legs; 6, moribund. Animals with a clinical score ≥4 were sacrificed immediately.
Starting at day 10 after induction of EAE, animals were treated once/day for 5 consecutive days with Epobis (10 mg/kg, 1 mL/kg, s.c.) or PBS (1.0 mL/kg, s.c.). The control group is identical to the control group of previously published data performed simultaneously with the Epobis study.

Data set [5] deals with short-term/working memory of adult rats. As to the kind of experiment: Social recognition test. Format: in vivo, rat. The conditions noted are these: 10 mg/kg single s.c., healthy adult rats. As for the experimental part:
The social recognition assay evaluates short-term/working memory of adult rats, a type of memory known to be impaired in old (>18 month) rats and in rats experiencing early stage AD [38]. Social recognition in rats was evaluated essentially as described previously. First, a habituation session was carried out; 24 h later, Epobis (10 mg/kg, 1 mL/kg, s.c.) or PBS (1.0 mL/kg, s.c.) was administered, and 1 h later the test animals were introduced to a new, juvenile male rat for 4 min (initial trial). After another 2.5 h the same juvenile rat was reintroduced, or as a control, an unfamiliar juvenile rat was introduced (test trial). To test long-term effects of the peptide, another social recognition test was performed with the initial trial taking place 73 h after administration of test compounds. Data are expressed as a recognition ratio: RR = T2/(T2 + T1), where T1 and T2 are the times spent on investigating the juvenile animal during the initial and the test trial, respectively.

The next data set has as its target EPO receptor. As to conditions: surface plasmon resonance; read-out: apparent KD; cited from earlier work. An excerpt: We have previously designed two synthetic, dendrimeric peptides with sequences corresponding to the first and the second EPO receptor binding site of human EPO, respectively. The peptide derived from binding site 2 was named Epotris and has previously been reported to promote neuritogenesis and neuronal survival in vitro and in vivo in a nonerythropoietic manner and to attenuate status epilepticus. The peptide derived from binding site 1 (residues 36–53 in the structural model of the EPO:EPO receptor-complex; PDB: 1EER [27]) was named Epobis, and surface plasmon resonance analy ...

The mark [6] stands for this setting: biotinylated Epobis, 10 mg/kg single s.c., competitive ELISA, n = 6.
[7] abbreviates: 10 mg/kg s.c. once/day for 5 days from day 10, Lewis rats.

In the case of “I: NENITVPDTKVNFYAWKRKK-NH2 / II: NENITVPDTKVNFYAWKRK / III: NENITVPDTKVNFYAWKR / IV: NENITVPDTKVNFYAWKR (amide I:19-IV:C, I:20-II:C, II:19-III:C; C-terminus assumed) [Epobis]”, the “concentration of maximal stimulation of neurite outgrowth” value in the data set on primary rat motoneurons turned out to be 0.33 µM. For the same substance, the “L-cell viability relative to control (highest)” value in data set [1] (conditioned medium from IFN-γ-activated AMJ2-C8 macrophages pretreated 24 h with 2.7 μM Epobis, p < 0.05) is given as ~ 68%. Further, in data set [2], the “LPS-induced TNF secretion from microglia” value is “significant decrease”. In addition, the “plasma : CSF ratio” value in data set [3] (2 h after single s.c. 10 mg/kg) was “approximately 20”. Moreover, in data set [3] (setting [6]), the “time of peak plasma concentration” value is reported as “around 2 h” and the “time the peptide remained detectable in blood” value was “at least 24 h”. In addition, in data set [4], the effect on hematocrit entry is “did not cause any statistically significant increases” and the “effect on hemoglobin levels” value is on record as “did not cause any statistically significant increases”. For the same substance, in the data set with EAE in Lewis rats (setting [7]), the “effect on survival of EAE animals versus vehicle” value is “no significant effects” and the “effect on weight changes of EAE animals versus vehicle” value is given as “no significant effects”. Besides, the “activated microglia in the brain stem of EAE animals, Epobis versus vehicle” value with EAE in Lewis rats (10 mg/kg s.c. once/day for 5 days from day 10, immunohistochemistry) was “no difference”. The “clinical signs of EAE versus vehicle, later time points” value in the data set on EAE in Lewis rats (10 mg/kg s.c. once/day for 5 days from day 10, n = 10) is listed as “not significantly different”. Also, the “clinical signs of EAE versus vehicle, day 2 after onset” value in the data set with EAE in Lewis rats (10 mg/kg s.c. once/day for 5 days from day 10, n = 10, p < 0.05) is listed as “significantly lower”. Besides, the “recognition ratio (RR) versus vehicle, test 73 h after administration” value in data set [5] (n = 12, t-test p < 0.018, different from 0.5 p < 0.0001) is listed as “significantly lower”. Further, the “recognition ratio (RR) versus vehicle, test 1 h after administration” value in data set [5] (n = 12, t-test p > 0.05) was “no significant difference”. In addition, the Kd at EPO receptor was approximately 60 nM.

erythropoietin [EPO]: in data set [1] (conditioned medium from IFN-γ-activated AMJ2-C8 macrophages pretreated 24 h with 8.4 nM EPO), the “L-cell viability relative to control” value was ~ 64%. Also, in data set [4], the effect on hematocrit result is “statistically significant increases” and the “effect on hemoglobin levels” value is recorded as “statistically significant increases”.
